One assay deals with db/db mice. In words: Confirmation test for hypoglycemic effect in db/db mice. In kind it is in vivo. The conditions noted are these: oral gavage, 1 mg/10 mL suspension at 10 mL/kg, decrease in blood glucose AUC (0 to 8 hours) relative to control group. On the procedure: The laboratory animals used were db/db mice (CLEA Japan, Inc., male, 7 weeks of age). A test substance was suspended in a 0.5% aqueous carboxymethylcellulose (CMC) solution and adjusted to a concentration of 1 mg/10 mL. On the day of the test, the db/db mice were divided into groups of 6 animals each, such that differences in the mean values and variance of their blood glucose levels were minimized, according to the procedures for blood collection and blood glucose measurement described later. The mice were measured for their body weight. Then, the test substance suspension was administered by oral gavage using a probe for oral administration at a volume of 10 mL/kg. The control group received a 0.5% aqueous CMC solution alone. Blood was collected at 8 points in total: before administration of the test substance (0 hour) and 0.5, 1, 2, 4, 6, 8 and 24 hours after oral administration. The test was performed under ad libitum feeding and drinking conditions.
Blood was collected from the orbital venous sinus of each animal under ether anesthesia using a heparin-coated blood collection tube and measured for its blood glucose level with a Glucose CII-Test Wako (Wako Pure Chemical Industries, Ltd., Japan). To determine the intensity (%) of hypoglycemic effect, casual blood glucose levels measured between 0 and 8 hours in each test group were analyzed by the trapezoidal method to calculate the area under the blood glucose-time curve (AUC). The results are expressed as a decrease in AUC relative to that of the control group.

A further assay concerns the target T1, human SGLT1 (Homo sapiens, UniProt P13866).
T1 construct: expressed in transfected cells; vector pCMV-tag5A (Stratagene)
T1 sequence (P13866 1-664): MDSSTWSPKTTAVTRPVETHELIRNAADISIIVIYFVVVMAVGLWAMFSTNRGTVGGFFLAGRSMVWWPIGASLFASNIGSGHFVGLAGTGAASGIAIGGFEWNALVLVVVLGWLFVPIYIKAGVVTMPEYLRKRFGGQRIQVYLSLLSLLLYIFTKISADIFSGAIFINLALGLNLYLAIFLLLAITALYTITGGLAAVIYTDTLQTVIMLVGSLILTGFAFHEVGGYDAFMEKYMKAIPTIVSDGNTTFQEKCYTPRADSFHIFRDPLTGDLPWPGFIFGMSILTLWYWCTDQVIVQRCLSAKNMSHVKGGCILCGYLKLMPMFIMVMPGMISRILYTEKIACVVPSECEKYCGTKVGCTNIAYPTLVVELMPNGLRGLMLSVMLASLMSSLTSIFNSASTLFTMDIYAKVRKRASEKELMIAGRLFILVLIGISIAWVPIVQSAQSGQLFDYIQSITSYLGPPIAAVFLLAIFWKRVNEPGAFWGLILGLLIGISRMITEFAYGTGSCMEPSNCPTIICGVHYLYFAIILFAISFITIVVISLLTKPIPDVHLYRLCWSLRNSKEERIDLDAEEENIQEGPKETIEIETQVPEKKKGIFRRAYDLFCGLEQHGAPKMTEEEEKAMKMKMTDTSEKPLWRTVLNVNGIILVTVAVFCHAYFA
Kind of assay: Inhibition test for sodium-dependent sugar uptake in CHO-k1 cells stably expressing human SGLT1. The assay is classed as cell-based. The conditions noted are these: 0.1 mM [14C]methyl α-D-glucopyranoside uptake, 37° C., 30 minutes. The procedure:
(§1) A human SGLT1 sequence (NM_000343) was reverse-transcribed and amplified from human small intestine mRNA, and then introduced into pCMV-tag5A (Stratagene). Likewise, a human SGLT2 sequence (NM_003041) was prepared from human kidney mRNA in the same manner and introduced into pcDNA3.1+hygro (Invitrogen). The individual cloned sequences were confirmed to be identical with the sequences reported.
(§2) The human SGLT1 and human SGLT2 expression vectors were each transfected into CHO-k1 cells using lipofectamine 2000 (Invitrogen). The cells were cultured in the presence of 500 μg/mL geneticin (SGLT1) or hygromycin B (SGLT2) to select resistant strains and specific activity of sugar uptake in the system shown below was used as an indicator to obtain SGLT-expressing cells.
(§3) The cells stably expressing human SGLT1 or human SGLT2 were used for an inhibition test of sodium-dependent sugar uptake activity.
(§4) The cells were incubated for 20 minutes in 1 mL pretreatment buffer (140 mM choline chloride, 2 mM KCl, 1 mM CaCl2, 1 mM MgCl2, 10 mM HEPES/5 mM Tris, pH 7.4). The pretreatment buffer was removed and replaced with 200 μL uptake buffer containing a test compound (methyl α-D-glucopyranoside (containing [^14C]methyl α-D-glucopyranoside) at 0.1 mM for SGLT1 inhibition and 1 mM for SGLT2 inhibition, 140 mM NaCl, 2 mM KCl, 1 mM CaCl2, 1 mM MgCl2, 10 mM HEPES/5 mM Tris, pH 7.4). Uptake reaction was performed at 37° C. for 30 minutes (SGLT1) or 1 hour (SGLT2). After the reaction, the cells were washed twice with 1 mL washing buffer (10 mM methyl α-D-glucopyranoside, 140 mM choline chloride, 2 mM KCl, 1 mM CaCl2, 1 mM MgCl2, 10 mM HEPES/5 mM Tris, pH 7.4), and then dissolved in a 0.2 M NaOH solution (400 μL). Aquazol 2 (Perkin Elmer) was added and mixed well with each sample, followed by measurement of radioactivity using a liquid scintillation counter (Beckman Coulter) to calculate the amount of sugar uptake. For the control group, uptake buffer containing no test compound was prepared. Moreover, another uptake buffer containing choline chloride instead of NaCl was also prepared for basal uptake.
(§5) Test compounds prepared at 6 appropriate concentrations were used to measure the amount of sugar uptake, and their concentrations required for 50% inhibition of the amount of sugar uptake were calculated as IC50 values, assuming that the amount of sugar uptake in the control group was set to 100%.

In the next assay the target is T2, human SGLT2 (Homo sapiens, UniProt P31639).
T2 construct: expressed in transfected cells; vector pcDNA3.1+hygro (Invitrogen)
T2 sequence (P31639 1-672): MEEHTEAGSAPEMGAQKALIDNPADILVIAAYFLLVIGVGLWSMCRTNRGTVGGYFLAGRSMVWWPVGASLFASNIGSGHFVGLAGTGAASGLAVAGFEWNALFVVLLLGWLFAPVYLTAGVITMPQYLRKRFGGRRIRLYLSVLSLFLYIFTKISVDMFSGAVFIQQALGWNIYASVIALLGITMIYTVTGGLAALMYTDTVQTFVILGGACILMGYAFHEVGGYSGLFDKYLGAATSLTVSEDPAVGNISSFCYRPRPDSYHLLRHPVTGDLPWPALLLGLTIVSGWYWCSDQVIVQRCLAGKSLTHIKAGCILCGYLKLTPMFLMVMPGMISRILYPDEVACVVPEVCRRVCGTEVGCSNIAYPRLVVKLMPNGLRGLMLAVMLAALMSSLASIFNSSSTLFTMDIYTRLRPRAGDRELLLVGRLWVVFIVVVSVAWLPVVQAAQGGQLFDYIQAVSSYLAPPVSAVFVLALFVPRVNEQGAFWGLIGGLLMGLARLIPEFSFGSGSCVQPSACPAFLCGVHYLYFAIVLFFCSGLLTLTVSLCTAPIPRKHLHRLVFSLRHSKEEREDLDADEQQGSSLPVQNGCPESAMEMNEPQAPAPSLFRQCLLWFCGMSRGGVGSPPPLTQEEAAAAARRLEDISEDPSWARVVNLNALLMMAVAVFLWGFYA
In words: Inhibition test for sodium-dependent sugar uptake in CHO-k1 cells stably expressing human SGLT2. The assay is classed as cell-based. The conditions noted are these: 1 mM [14C]methyl α-D-glucopyranoside uptake, 37° C., 1 hour. On the procedure:
as §1, §2, §3, §4, §5

Regarding `CCOc1ccc(Cc2cc([C@@H]3S[C@H](CO)[C@@H](O)[C@H](O)[C@H]3O)c(O)cc2C)cc1` [Compound 98, reference compound], the “Intensity of hypoglycemic effect” value in the assay on db/db mice was found to be 35.0%.

Regarding `Cc1ccc(Cc2cc([C@@H]3S[C@H](CO)[C@@H](O)[C@H](O)[C@H]3O)c(O)cc2C)cc1` [Compound I, (1S)-1,5-anhydro-1-[4-methyl-5-(4-methylbenzyl)-2-hydroxyphenyl]-1-thio-D-glucitol], the IC50 against human SGLT1 turned out to be 0.017 µM; against human SGLT2, 0.02 µM. For the same compound, the “Intensity of hypoglycemic effect” value in the assay on db/db mice is on record as 48.5%.

On to `CSc1ccc(Cc2cc([C@@H]3S[C@H](CO)[C@@H](O)[C@H](O)[C@H]3O)c(O)cc2C)cc1` [Compound IV, (1S)-1,5-anhydro-1-[2-hydroxy-4-methyl-5-[4-(methylsulfanyl)benzyl]phenyl]-1-thio-D-glucitol], for which the IC50 was found to be 0.027 µM against human SGLT1 and 0.01 µM against human SGLT2.

`COc1ccc(Cc2cc([C@@H]3S[C@H](CO)[C@@H](O)[C@H](O)[C@H]3O)c(O)cc2C)cc1` [II, (1S)-1,5-anhydro-1-[5-(4-methoxybenzyl)-4-methyl-2-hydroxyphenyl]-1-thio-D-glucitol]: the results for the IC50 on human SGLT1 and at human SGLT2 were 0.032 µM and 0.02 µM, respectively. Further, the “Intensity of hypoglycemic effect” value in the assay with db/db mice is 49.7%.

Take `CCc1ccc(Cc2cc([C@@H]3S[C@H](CO)[C@@H](O)[C@H](O)[C@H]3O)c(O)cc2C)cc1` [III, (1 S)-1,5-anhydro-1-[5-(4-ethylbenzyl)-2-hydroxy-4-methylphenyl]-1-thio-D-glucitol]: the IC50 worked out at 0.032 µM against human SGLT1 and 0.012 µM against human SGLT2.

Turning to `Cc1ccc(Cc2cc([C@@H]3S[C@H](CO)[C@@H](O)[C@H](O)[C@H]3O)c(O)cc2Cl)cc1` [V, (1S)-1,5-anhydro-1-[4-chloro-2-hydroxy-5-(4-methylbenzyl)phenyl]-1-thio-D-glucitol], the figures for the IC50 against human SGLT1 and against human SGLT2 were 0.019 µM and 0.011 µM, respectively.

On to `CCc1ccc(Cc2cc([C@@H]3S[C@H](CO)[C@@H](O)[C@H](O)[C@H]3O)c(O)cc2Cl)cc1` [VI, (1S)-1,5-anhydro-1-[4-chloro-2-hydroxy-5-(4-ethylbenzyl)phenyl]-1-thio-D-glucitol], for which the IC50 against human SGLT1 was found to be 0.029 µM; against human SGLT2 it was 0.008 µM.

Consider `COc1ccc(Cc2cc([C@@H]3S[C@H](CO)[C@@H](O)[C@H](O)[C@H]3O)c(O)cc2Cl)cc1` [VII, (1S)-1,5-anhydro-1-[4-chloro-2-hydroxy-5-(4-methoxybenzyl)phenyl]-1-thio-D-glucitol], for which the IC50 on human SGLT1 is 0.033 µM; at human SGLT2, 0.013 µM.

The term IC50 denotes the midpoint of a concentration-inhibition curve.

Source of the values: US20100069460A1, “1-PHENYL 1-THIO-D-GLUCITOL DERIVATIVE” (TAISHO PHARMACEUTICAL CO., LTD., priority 2006, published 2010).
